Measurements from the METLIN SMRT retention time set (Domingo-Almenara et al. 2019).

Assay: gradient 5% acetonitrile 3 min, to 50% in 2 min, to 85% in 15 min, held 3 min, 100 µL/min
Conditions: column: Zorbax Extend-C18 2.1 x 50 mm; eluents: water / acetonitrile, 0.1% formic acid
Summary of the method: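 Retention times come from adduct peaks that were picked computationally and then checked by hand. The standards, pure and pooled in mixtures of ~100 molecules, were run on a Zorbax Extend-C18 column (2.1 × 50 mm, 1.8 μm) at 100 μL/min with water and acetonitrile, each with 0.1% formic acid. Detection was by quadrupole time-of-flight mass spectrometry in positive and negative ionization mode, with a dead volume of 40 μL and a dwell volume of 900 μL.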

| Structure (SMILES) | RP-LC retention time |
| --- | --- |
| COc1ccc(-c2nn3c(-c4ccc5ccccc5n4)nnc3s2)cc1OC | 886 s |
| COc1cccc(NC(=O)C2CCN(S(=O)(=O)c3cc(-c4noc(C5CC5)n4)cs3)CC2)c1 | 1000 s |
| Cc1ccc(-c2nc(-c3ccc4c(c3)ncn4CCN3CCOCC3)no2)cc1F | 689 s |
| COc1nccnc1N1CCC(N(C)C(=O)Cc2c(C)noc2C)C1 (stereo not drawn) | 642 s |
| Cn1c(=O)sc2cc(S(=O)(=O)N3CCC(C(=O)NCCC4=CCCCC4)CC3)ccc21 | 911 s |
| Cc1cccc(NS(=O)(=O)c2cc3n(c2)CCN(C)C3=O)c1C | 694 s |
| CCc1ccccc1NC(=O)Cn1c(CC)nc2c(c1=O)CN(Cc1ccccc1)CC2 | 666 s |
| CCOC(=O)C1CCCN(c2c(N3CCC(Cc4ccccc4)CC3)c(=O)c2=O)C1 (stereo not drawn) | 986 s |
| CCCS(=O)(=O)N1C[C@@H](COC)[C@H](c2ccncc2)C1 | 536 s |
| CCCn1cc(CCNC(=O)c2ccnn2CC)c2cccnc21 | 678 s |
| O=C(C1=CN(c2ccc3c(c2)OCO3)c2cc(F)ccc2S1(=O)=O)N1CCCC1 | 796 s |
| CCC(=O)NCCc1csc(C2CCCN(C(=O)C(C)(C)C)C2)n1 (stereo not drawn) | 685 s |
| COCCNS(=O)(=O)c1cccc(-c2nc(-c3ccccc3)no2)c1 | 972 s |
| CCCCn1cc(S(=O)(=O)Nc2ccccc2F)c2cccnc21 | 922 s |
| O=C(c1cc(-c2ccco2)on1)N1CCCC(c2nnc(-c3ccccc3F)s2)C1 (stereo not drawn) | 923 s |
| Cc1nc(OC(C)C)cc(N2CCN(C(=O)CCc3ccccc3)CC2)n1 | 617 s |
| COc1cccc(CNC(=O)Nc2cccc(-c3ccc(N4CCCCC4)nn3)c2)c1 | 702 s |
| N#Cc1cccc(-c2cn3c(n2)N(C(=O)c2cccs2)CCC3)c1 | 684 s |
| O=C(CN1C(=O)CCCc2cc(S(=O)(=O)N3CCCC3)ccc21)Nc1ccc(Cl)cc1F | 897 s |
| COc1ccccc1NC(=O)C1Cc2ccccc2CN1S(=O)(=O)c1ccccc1 (stereo not drawn) | 1070 s |
| Nc1nc(-c2ccccc2)c(C(=O)c2ccccc2)s1 | 706 s |
| COc1cc2c(cc1OC)C(C(=O)N(C)c1ccc(Cl)cc1)C(c1cccnc1)N(C)C2=O (stereo not drawn) | 674 s |

| Structure (SMILES) | RP-LC retention time |
| --- | --- |
| O=C(c1ccc(-c2cccs2)nc1)N1CCCCC1 | 813 s |
| CC(=O)c1ccc(OCC(O)CN2CCN(Cc3ccc(Cl)cc3)CC2)cc1 (stereo not drawn) | 574 s |
| O=C(NCc1cccs1)c1ccc2c(c1)CC(=O)N2Cc1ccccc1 | 817 s |
| CCc1ccccc1NC(=O)N1CCCC(C)(C(=O)NCc2ccc(F)cc2)C1 (stereo not drawn) | 864 s |
| CCn1cc(S(=O)(=O)Nc2ccc(C)c(C)c2)c2cccnc21 | 887 s |
| O=C(Nc1cccc(F)c1)Nc1ccc2nncn2c1 | 686 s |
| Cc1ccc(Cl)cc1N1C(=O)CN(S(C)(=O)=O)CC1(C)C(=O)NC1CCCCC1 (stereo not drawn) | 880 s |
| Cc1cc(=O)n(CC(=O)NCc2ccccc2Cl)c(N(C)Cc2ccccc2)n1 | 762 s |
| N#Cc1ccc(C(=O)OCc2nc3ccccc3s2)cc1 | 936 s |
| CCC(=O)N1CCc2cc(C(=O)NC3CC3)ccc21 | 650 s |
| O=C(Nc1cccc(-c2ccc(N3CCOCC3)nn2)c1)Nc1cc(F)ccc1F | 738 s |
| COc1ccc(CC(=O)N2CCN(c3nc4ccncc4n(C)c3=O)CC2)c(Cl)c1 | 645 s |
| Cc1ccc(/C=N/NC(=O)c2ccccc2Oc2ccccc2)o1 | 854 s |
| CCCCNC(=O)C1CCN(C(=O)c2ncn3c2COC(c2ccc(F)cc2)C3)CC1 (stereo not drawn) | 722 s |
| CCCC(=O)Nc1nc(C(=O)OCC)cs1 | 700 s |
| CCN1CCN(c2cc(C)c3cc(NC(=O)CSc4ccccc4)ccc3n2)CC1 | 602 s |
| CCCS(=O)(=O)N1CCCc2ccc(NC(=O)NC3CCCCC3)cc21 | 882 s |
| CCCCCn1c(=O)c2ccccc2n(Cc2nc(-c3ccccc3)no2)c1=O | 1240 s |
| CCN1CCN(C(=O)C2CCN(S(=O)(=O)c3c(C)nn(-c4ccc(Cl)cc4)c3C)CC2)CC1 | 670 s |
| CCN1C(=O)C2(CCN(S(=O)(=O)c3cccs3)CC2)c2ccccc21 | 983 s |
| CCN(CC)CCCNC(=O)c1ccc2c(c1)N(C)C(=O)C1CCCCN21 (stereo not drawn) | 608 s |
| Cc1cccc(Oc2nccnc2N2CCC(C(=O)NC(C)c3ccc(C)c(C)c3)CC2)c1 (stereo not drawn) | 1130 s |

| Structure (SMILES) | RP-LC retention time |
| --- | --- |
| CC(C)n1cnc2cc(CNC(=O)c3cnccn3)ccc21 | 572 s |
| CC1=C(c2ccc(Cl)cc2)S(=O)(=O)N=C1N1CCCN(C(=O)NC(C)(C)C)CC1 | 871 s |
| COc1cc([C@@H]2c3cc4c(cc3[C@H](O)[C@@H](CO)[C@@H]2C(=O)NCc2ccc3c(c2)OCO3)OCO4)cc(OC)c1OC | 709 s |
| CC(C)CC(=O)Nc1ccc(S(=O)(=O)N2CCCC2c2nc(-c3ccccc3)no2)cc1 (stereo not drawn) | 1080 s |
| CCCCn1c(=O)c2ccccc2n(Cc2nc(-c3ccc(OC)c(OC)c3)no2)c1=O | 1060 s |
| Cc1cnc(C(=O)N2[C@H]3CC[C@@H]2c2cnc(-c4ccc(F)cc4)nc2C3)cn1 | 874 s |
| COc1cc(C(=O)NC2CCN(c3cc(-c4cccs4)[nH]n3)C2)cc(OC)c1OC (stereo not drawn) | 698 s |
| Cc1noc(C)c1-c1ccc(S(=O)(=O)Nc2cccc(C#N)c2)cc1 | 874 s |
| COc1ccc(-c2nc(N3CCC4(CC3)OCCO4)c3ccccc3n2)cc1 | 726 s |
| Cc1ccc(-n2c(=O)c3c(cc(C)n3C)n(CC(=O)Nc3ccccc3F)c2=O)cc1 | 841 s |
| Cc1ccc(/C=C/S(=O)(=O)NCCn2nc(-c3cccnc3)ccc2=O)cc1 | 638 s |
| O=C(c1ccc(F)c(F)c1)N1CCC2(CC1)N=C(c1ccc(Cl)cc1)NO2 | 920 s |
| Cc1cccc(N2CCN(S(=O)(=O)c3ccc4c(c3)CCCC(=O)N4)CC2C)c1 (stereo not drawn) | 881 s |
| COc1ccc(-c2cc(C(=O)Nc3ccc4c(c3)CCC(=O)N4)c3ccccc3n2)cc1 | 822 s |
| COc1ccc(CN2CC3(CCN(S(=O)(=O)c4cccnc4)CC3)C2=O)cc1 | 750 s |
| N#Cc1ccc(CN2CCC3(CCC3O)CC2)cc1 (stereo not drawn) | 570 s |
| COc1ccc(/C=C/c2cc(O)cc(OC3OC(CO)C(O)C(O)C3O)c2)cc1O (stereo not drawn) | 612 s |
| CN1C(=O)CCc2cc(NC(=O)C3CCCCC3)ccc21 | 752 s |
| CC(=O)Nc1ccc(C2(C(=O)NCc3ccc(Cl)cc3)CCC2)cc1 | 785 s |
| CCn1cnc(S(=O)(=O)N2CCCC(C(=O)N3CCN(c4ccc(F)cc4)CC3)C2)c1 (stereo not drawn) | 752 s |
| COC1CCC12CCN(C(=O)C1CCCCC1)CC2 (stereo not drawn) | 903 s |
| O=S(=O)(c1cccs1)N1CCN(c2ncccn2)CC1 | 754 s |

| Structure (SMILES) | RP-LC retention time |
| --- | --- |
| Cc1cccc(-c2csc3c(=O)n(Cc4ccccn4)cnc23)c1 | 877 s |
| Cc1nc(-c2cn(C(C)C)c3ncccc23)sc1C(=O)Nc1ccccc1F | 1090 s |
| Cc1ccc(NC(=O)N2CCC(CN3CCCC(C)C3)CC2)cc1 (stereo not drawn) | 613 s |
| COc1ccc(-c2nc(C3CC(=O)N(c4ccc(F)cc4)C3)no2)cc1OC (stereo not drawn) | 884 s |
| CN(C)S(=O)(=O)c1ccc(C(=O)Nc2nc(-c3ccc4c(c3)OCO4)cs2)cc1 | 910 s |
| CCCCN(C)C(=O)c1c(C)oc2ccn(Cc3ccc(F)cc3)c(=O)c12 | 868 s |
| O=C(Nc1c(-c2ccc(F)cc2)nc2ccccn12)c1ccc2c(c1)OCO2 | 651 s |
| O=C(c1ccccc1)N1CCN(S(=O)(=O)c2cc3c4c(c2)CCC(=O)N4CCC3)CC1 | 789 s |
| Cc1ccc(N2CC(c3noc(-c4sccc4C)n3)CC2=O)cc1 (stereo not drawn) | 1040 s |
| CCOC(=O)c1nc(N(C)C2CCCCC2)c2ccccc2n1 | 789 s |
| O=C(CN1C(=O)CCC1=O)NCC(O)C1CCCCC1 (stereo not drawn) | 597 s |
| O=c1ccc(-c2ccccc2Br)nn1Cc1nc(-c2ccc3c(c2)OCO3)no1 | 1040 s |
| CC1CC(C)CN(C(=O)C2CCCN(C(=O)c3cc4sccc4n3C)C2)C1 (stereo not drawn) | 963 s |
| COC(=O)c1cc(C)nc2c1c(=O)n(Cc1cc(C)ccc1C)c(=O)n2Cc1ccco1 | 1170 s |
| COc1cccc(OC)c1C(=O)Nc1nnc(SCc2nnc(-c3ccccc3C)o2)s1 | 888 s |
| CN(CC(=O)O)S(=O)(=O)c1ccc(Cl)c(-c2nnc(-c3ccccc3)o2)c1 | 819 s |
| CCc1nnc(NC(=O)CCc2ccc(-c3ccc(F)cc3)o2)s1 | 855 s |
| Cc1sc(NC(=O)COc2ccc(Cl)cc2)nc1-c1ccc2c(c1)N(C)C(=O)CO2 | 1040 s |
| O=C(C1=CN(c2ccc3c(c2)OCCO3)c2cc(Cl)ccc2S1(=O)=O)N1CCCCC1 | 873 s |
| CCc1cccc(C)c1Nc1c(-c2cc(Br)ccc2O)nc2nc(C)cc(C)n12 | 1040 s |
| COc1cccc(-c2cc(C(=O)N3CCCC3c3c(C)noc3C)on2)c1 (stereo not drawn) | 872 s |
| Cc1nn2c(N3CCN(c4ccccn4)CC3)cc(C(C)(C)C)nc2c1-c1ccc(F)cc1 | 1090 s |
